Test results published in ChEMBL document CHEMBL1909616, “Identification of 4-quinolone derivatives as inhibitors of reactive oxygen species production from human umbilical vein endothelial cells” (Bioorg Med Chem Lett, 2011).
Converted amounts (≈) assume the structure as drawn.

Columns and labels:
[1] = Aqueous solubility of the compound at pH 6.8; format: physicochemical; conditions: aqueous medium
[2] = Intrinsic clearance in human liver microsomes at 0.2 uM; format: ADME, Microsome
[3] = Intrinsic clearance in mouse liver microsomes at 0.2 uM; format: ADME, Microsome
[4] = Total clearance in Sprague-Dawley rat at 0.3 mg/kg, iv; format: ADME, organism-based; design: dose 0.3 mg/kg, route intravenous; conditions: in vivo
[5] = AUC (0 to 24 hrs) in Sprague-Dawley rat at 0.3 mg/kg, iv; format: ADME, organism-based; design: time < 24 hr, dose 0.3 mg/kg, route intravenous; conditions: plasma
[6] = Tmax in Sprague-Dawley rat at 3 mg/kg, po; format: ADME, organism-based; design: dose 3 mg/kg, route oral; conditions: in vivo
[7] = Half life in Sprague-Dawley rat at 0.3 mg/kg, iv; format: ADME, organism-based; design: dose 0.3 mg/kg, route intravenous; conditions: in vivo
[8] = Volume of distribution at steady state in Sprague-Dawley rat at 0.3 mg/kg, iv; format: ADME, organism-based; design: dose 0.3 mg/kg, route intravenous; conditions: in vivo, read-out: Vdss
[9] = AUC (0 to 24 hrs) in Sprague-Dawley rat at 3 mg/kg, po; format: ADME, organism-based; design: time < 24 hr, dose 3 mg/kg, route oral; conditions: plasma
[10] = Oral availability in Sprague-Dawley rat at 3 mg/kg; format: ADME, organism-based; design: dose 3 mg/kg; conditions: in vivo
[11] = Cmax in Sprague-Dawley rat at 3 mg/kg, po; format: ADME, organism-based; design: dose 3 mg/kg, route oral; conditions: in vivo
[12] = AUC (0 to 24 hrs) in Sprague-Dawley rat at 1 mg/kg, po; format: ADME, organism-based; design: time < 24 hr, dose 1 mg/kg, route oral; conditions: plasma
[13] = Oral availability in Sprague-Dawley rat at 1 mg/kg; format: ADME, organism-based; design: dose 1 mg/kg; conditions: in vivo
[14] = Cmax in Sprague-Dawley rat at 1 mg/kg, po; format: ADME, organism-based; design: dose 1 mg/kg, route oral; conditions: in vivo
[15] = Tmax in Sprague-Dawley rat at 1 mg/kg, po; format: ADME, organism-based; design: dose 1 mg/kg, route oral; conditions: in vivo

Compound | solubility [1] | CLint scaled at 0.2 µM [2] | CLint scaled at 0.2 µM [3] | also measured
Cc1c(COc2ccnc(OCC3CCOCC3)c2)[nH]c2ccccc2c1=O | 22 µM (≈ 8.37 µg/mL) | 95 mL/min/kg | 203 mL/min/kg | –
CCCCOc1cccc(OCc2[nH]c3ccccc3c(=O)c2C)c1 | < 1 µM | > 1000 mL/min/kg | > 1000 mL/min/kg | –
Cc1c(COc2cccc(OCCCC(F)(F)F)c2)nc2ccccc2c1O | < 1 µM | 257 mL/min/kg | > 1000 mL/min/kg | –
Cc1c(COc2cccc(OCC3CCOCC3)n2)[nH]c2ccccc2c1=O | 3 µM (≈ 1.14 µg/mL) | 770 mL/min/kg | 984 mL/min/kg | –
CCCCCC/C=C/Cc1[nH]c2ccccc2c(=O)c1C | < 1 µM | > 1000 mL/min/kg | > 1000 mL/min/kg | –
Cc1c(COc2cc(OCCC(C)(C)O)ccn2)[nH]c2ccccc2c1=O | 85 µM (≈ 31.3 µg/mL) | 38 mL/min/kg | 112 mL/min/kg | clearance [4]: 6 mL/min/kg; AUC(0-t) at 24 h [5]: 897 ng·h/mL; AUC(0-t) at 24 h [12]: 2240 ng·h/mL; bioavailability [13]: 78%; half-life [7]: 4.1 h; Vd [8]: 1.4 L/kg; Cmax [14]: 202 ng/mL; Tmax [15]: 4 h
COC(C)(C)CCOc1cccc(OCc2[nH]c3ccccc3c(=O)c2C)c1 | 2 µM (≈ 0.763 µg/mL) | > 1000 mL/min/kg | > 1000 mL/min/kg | –
CCCCCCCCCc1[nH]c2ccccc2c(=O)c1C | < 1 µM | > 1000 mL/min/kg | > 1000 mL/min/kg | –
COCCOCCCCc1[nH]c2ccccc2c(=O)c1C | ≥ 100 µM | 45 mL/min/kg | > 1000 mL/min/kg | –
Cc1c(COCCCCO)nc2ccccc2c1O | ≥ 100 µM | – | – | –
Cc1c(COc2cncc(OCCC(C)(C)O)c2)[nH]c2ccccc2c1=O | ≥ 100 µM | 66 mL/min/kg | 225 mL/min/kg | –
O=c1cc(COc2cccc(OCC3CCOCC3)c2)[nH]c2ccccc12 | 4 µM (≈ 1.46 µg/mL) | 78 mL/min/kg | 197 mL/min/kg | –
Cc1c(COCCCCOCC2(C)COC2)[nH]c2ccccc2c1=O | ≥ 100 µM | 53 mL/min/kg | 295 mL/min/kg | –

The next lines start with results.

solubility [1] | CLint scaled at 0.2 µM [2] | CLint scaled at 0.2 µM [3] | Compound | also measured
< 1 µM | – | – | COc1ccc2[nH]c(COc3cccc(OCC4CCOCC4)c3)c(C)c(=O)c2c1 | –
< 1 µM | > 1000 mL/min/kg | > 1000 mL/min/kg | Cc1c(COc2cccc(OCC3CCOCC3)c2)[nH]c2ccc(Cl)cc2c1=O | –
5 µM (≈ 1.9 µg/mL) | 214 mL/min/kg | 420 mL/min/kg | Cc1c(COc2cccc(OCC3CCOCC3)c2)[nH]c2ccccc2c1=O | clearance [4]: 26 mL/min/kg; AUC(0-t) at 24 h [5]: 196 ng·h/mL; Tmax [6]: 0.22 h; half-life [7]: 1.8 h; Vd [8]: 2.3 L/kg; AUC(0-t) at 24 h [9]: 526 ng·h/mL; bioavailability [10]: 27%; Cmax [11]: 196 ng/mL
3 µM (≈ 1.22 µg/mL) | – | – | CC(C)c1c(COc2cccc(OCC3CCOCC3)c2)[nH]c2ccccc2c1=O | –
< 1 µM | 756 mL/min/kg | > 1000 mL/min/kg | Cc1c(COc2cccc(OCC3CCOCC3)c2)[nH]c2ccc(-c3cccnc3)cc2c1=O | –
≥ 100 µM | 133 mL/min/kg | 238 mL/min/kg | Cc1c(COc2cncc(OCC3CCOCC3)c2)[nH]c2ccccc2c1=O | –
≥ 100 µM | < 20 mL/min/kg | < 50 mL/min/kg | Cc1c(COc2cccc(OCC3CCOCC3)c2)[nH]c2ccc(C(=O)O)cc2c1=O | –
< 1 µM | – | – | Cc1c(COc2cccc(OCC3CCOCC3)c2)[nH]c2ccc(Br)cc2c1=O | –
36 µM (≈ 13.7 µg/mL) | 113 mL/min/kg | 312 mL/min/kg | Cc1c(COc2cc(OCC3CCOCC3)ccn2)[nH]c2ccccc2c1=O | –
< 1 µM | – | – | Cc1ccc2[nH]c(COc3cccc(OCC4CCOCC4)c3)c(C)c(=O)c2c1 | –
2 µM (≈ 0.8 µg/mL) | 460 mL/min/kg | > 1000 mL/min/kg | O=c1c(Cl)c(COc2cccc(OCC3CCOCC3)c2)[nH]c2ccccc12 | –
2 µM (≈ 0.795 µg/mL) | 473 mL/min/kg | > 1000 mL/min/kg | Cc1c(COc2cccc(OCC3CCOCC3)c2)[nH]c2ccc(F)cc2c1=O | –
